In one assay the test system is HT-29 tumor cells. Kind of assay: Method C: Cell Growth Inhibition Assay (CellTiter-Glo), HT-29. Type of assay: cell-based. Conditions: Homo sapiens, HT-29, 72 h, 3 days, 4-parameter fit. Summed up:
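Cells were seeded at 500 per well and dosed the next day with nine serial 1:3 compound dilutions (0.2% DMSO final), then grown 3 days at 37° C, 5% CO2. ATP was measured by CellTiter-Glo luminescence, and IC50 was interpolated by 4-parameter fit of percent inhibition versus DMSO controls.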

The next assay concerns Colo205 tumor cells. The assay is described as follows: Method C: Cell Growth Inhibition Assay (CellTiter-Glo), Colo205. Type of assay: cell-based. Conditions: Homo sapiens, COLO 205, 72 h, 3 days, 4-parameter fit. A digest of the protocol:
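Cells plated at 500 cells/well, dosed next day with 10-point 1:3 dilution series (0.2% final DMSO) and grown 3 days at 37 °C, 5% CO2. CellTiter-Glo luminescence (total ATP) served as cell-number surrogate; inhibition relative to DMSO controls, IC50 interpolated by 4-parameter fit.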

In a further assay the target is B-Raf (Homo sapiens, UniProt P15056). The assay is described as follows: B-Raf Accelerated MEK ATPase assay (BRAMA). Type of assay: biochemical. Conditions: Method (A): BRAMA, kinetic read. The procedure: Compounds of the present invention were tested for B-Raf protein serine kinase inhibitory activity in a B-Raf Accelerated MEK ATPase assay (BRAMA). The BRAMA assay is a high sensitivity assay which measures an intrinsic MEK-mediated ATP hydrolysis uncoupled from downstream ERK phosphorylation by coupling the formation of ADP to NADH oxidation through the enzymes pyruvate kinase and lactate dehydrogenase. When ADP production is initiated by addition of catalytic amounts of an activated Raf enzyme and non-phosphorylated MEK, one observes robust ADP production concomitant with Raf-mediated phosphorylation of MEK.
Method A: Specific details of the assay are disclosed in: C. Rominger, M. Schaber, E. May. Assay for B-Raf Activity Based on Intrinsic MEK ATPase Activity. Statutory Invention Registration Ser. No. 11/084,993 (March, 2005). Method B: The method is the same as method A, but includes the following changes: 1) the assay was performed with a final MEK concentration of 150 nM and 2) the assay was read as single end point instead of a kinetic read.

Molecules are shown by their SMILES.

Consider 7 molecules from US20110098296A1, “Thiazole And Oxazole Kinase Inhibitors” (priority 2007, published 2011).

Chain of B-Raf (P15056 whole entry): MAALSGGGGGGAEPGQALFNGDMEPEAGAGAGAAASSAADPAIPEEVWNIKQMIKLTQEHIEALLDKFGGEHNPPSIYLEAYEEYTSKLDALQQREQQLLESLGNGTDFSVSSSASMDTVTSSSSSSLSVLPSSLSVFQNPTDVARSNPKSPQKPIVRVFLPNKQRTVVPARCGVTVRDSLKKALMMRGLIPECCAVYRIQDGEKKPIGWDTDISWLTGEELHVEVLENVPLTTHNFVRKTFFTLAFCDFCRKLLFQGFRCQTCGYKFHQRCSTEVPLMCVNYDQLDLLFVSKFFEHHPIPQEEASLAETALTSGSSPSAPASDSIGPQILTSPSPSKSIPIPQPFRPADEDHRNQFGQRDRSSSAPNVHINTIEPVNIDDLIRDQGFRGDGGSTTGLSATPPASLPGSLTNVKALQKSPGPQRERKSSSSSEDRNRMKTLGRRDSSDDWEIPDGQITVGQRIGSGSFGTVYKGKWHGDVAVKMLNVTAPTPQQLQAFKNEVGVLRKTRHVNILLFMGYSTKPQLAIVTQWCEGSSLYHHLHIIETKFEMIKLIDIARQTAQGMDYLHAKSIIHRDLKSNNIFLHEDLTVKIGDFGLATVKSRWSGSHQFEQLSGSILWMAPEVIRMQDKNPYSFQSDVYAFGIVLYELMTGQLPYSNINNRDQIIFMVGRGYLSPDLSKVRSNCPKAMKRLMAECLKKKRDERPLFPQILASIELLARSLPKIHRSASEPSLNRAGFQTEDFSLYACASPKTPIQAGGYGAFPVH

In turn, `COc1cc(Nc2nccc(-c3sc(N)nc3-c3cccc(NC(=O)c4c(F)cccc4F)c3)n2)cc(OC)c1OC` [Example 16, N-[3-(2-Amino-5-{2-[(3,4,5-trimethoxyphenyl)amino]pyrimidiN-4-yl}-1,3-thiazol-4-yl)phenyl]-2,6-difluorobenzamide] displayed a concentration for half-maximal inhibition (IC50) in the assay on HT-29 tumor cells of 100 to 1000 nM.
As for `Cc1cc(-c2sc(N)nc2-c2cccc(NC(=O)c3c(F)cccc3F)c2)nc(Nc2cccc(F)c2)n1` [Example 48, N-[3-(2-Amino-5-{2-[(3-fluorophenyl)amino]-6-methyl-4-pyrimidinyl}-1,3-thiazol-4-yl)phenyl]-2,6-difluorobenzamide], the IC50 in the assay on Colo205 tumor cells and against B-Raf was more than 1000 nM in each case.
For the molecule `CCc1nc(-c2cccc(NC(=O)c3c(F)cccc3F)c2)c(-c2ccnc(Nc3cccc(CN4CCCC4)c3)n2)s1` [Example 115, N-{3-[2-Ethyl-5-(2-{[3-(1-pyrrolidinylmethyl)phenyl]amino}-4-pyrimidinyl)-1,3-thiazol-4-yl]phenyl}-2,6-difluorobenzamide], the concentration for half-maximal inhibition (IC50) in the assay with Colo205 tumor cells, with HT-29 tumor cells and against B-Raf was 100 to 1000 nM each time.
With `Nc1nc(-c2cccc(C(=O)Nc3c(F)cccc3F)c2)c(-c2ccnc(Nc3cccc(CN4CCCC4)c3)n2)s1` [Example 77, 3-[2-Amino-5-(2-{[3-(1-pyrrolidinylmethyl)phenyl]amino}-4-pyrimidinyl)-1,3-thiazol-4-yl]-N-(2,6-difluorophenyl)benzamide], the IC50 with HT-29 tumor cells lay in the range of 100 to 1000 nM.
Consider `CCNc1nc(-c2cccc(NC(=O)C3CC3)c2)c(-c2ccnc(Nc3ccc(OCCN4CCCC4)c(Cl)c3)n2)s1` [Example 63, N-{3-[5-{2-[(3-Chloro-4-{[2-(1-pyrrolidinyl)ethyl]oxy}phenyl)amino]-4-pyrimidinyl}-2-(ethylamino)-1,3-thiazol-4-yl]phenyl}cyclopropanecarboxamide], for which, in the assay with HT-29 tumor cells, the concentration for half-maximal inhibition (IC50) is 100 to 1000 nM.
As for `COc1ccc(Nc2nccc(-c3sc(N)nc3-c3cccc(NC(=O)c4c(F)cccc4F)c3)n2)cc1N1CCNCC1` [Example 18, N-[3-(2-Amino-5-{2-[(4-methoxy-3-piperaziN-1-ylphenyl)amino]pyrimidiN-4-yl}-1,3-thiazol-4-yl)phenyl]-2,6-difluorobenzamide], in the assay with Colo205 tumor cells, the IC50 was more than 1000 nM.
On to `Cc1nc(-c2cccc(NC(=O)c3c(F)cccc3F)c2)c(-c2ccnc(Nc3ccc(OC4CCN(C(=O)OCc5ccccc5)CC4)c(F)c3)n2)s1` [Example 106], for which the IC50 with Colo205 tumor cells was more than 1000 nM; against B-Raf it was 100 to 1000 nM.

A word on the IC50: it is the concentration at which inhibition is half-maximal. High values mean weaker potency, low ones greater potency.
